The values below are quoted from earlier work in patent US20070053983A1 (priority 2005, published 2007).

Structures are written as SMILES.

The subject of this data set is β-adrenergic receptors. Conditions: man; reduced heart rate, cardiac output and exercise systolic pressure; inhibition of isoproterenol-induced and reflex orthostatic tachycardia.

Regarding `COCCc1ccc(OCC(O)CNC(C)C)cc1` (stereo not shown) [Metoprolol], the β-blocking activity entry is reported as “confirmed the β-blocking activity”.
